pIC50: −log10 of the molar value. Activity calls are given as the source filed them.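 The calls were made as follows: active = mean IC50 below 20 µM in each of the two panels, so potent in both; inactive = the rest.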
biological target: Neuropilin-1 (Homo sapiens) (UniProt O14786); assay: blockers of CendR peptide binding to NRP-1 – biochemical, FP and AlphaScreen panel, dose response (AID 651650); conditions: NRP-1 b1b2 / RPARPAR peptide binding, FP or AlphaScreen; FP, mean of runs
Sequence (O14786 whole entry, looked up): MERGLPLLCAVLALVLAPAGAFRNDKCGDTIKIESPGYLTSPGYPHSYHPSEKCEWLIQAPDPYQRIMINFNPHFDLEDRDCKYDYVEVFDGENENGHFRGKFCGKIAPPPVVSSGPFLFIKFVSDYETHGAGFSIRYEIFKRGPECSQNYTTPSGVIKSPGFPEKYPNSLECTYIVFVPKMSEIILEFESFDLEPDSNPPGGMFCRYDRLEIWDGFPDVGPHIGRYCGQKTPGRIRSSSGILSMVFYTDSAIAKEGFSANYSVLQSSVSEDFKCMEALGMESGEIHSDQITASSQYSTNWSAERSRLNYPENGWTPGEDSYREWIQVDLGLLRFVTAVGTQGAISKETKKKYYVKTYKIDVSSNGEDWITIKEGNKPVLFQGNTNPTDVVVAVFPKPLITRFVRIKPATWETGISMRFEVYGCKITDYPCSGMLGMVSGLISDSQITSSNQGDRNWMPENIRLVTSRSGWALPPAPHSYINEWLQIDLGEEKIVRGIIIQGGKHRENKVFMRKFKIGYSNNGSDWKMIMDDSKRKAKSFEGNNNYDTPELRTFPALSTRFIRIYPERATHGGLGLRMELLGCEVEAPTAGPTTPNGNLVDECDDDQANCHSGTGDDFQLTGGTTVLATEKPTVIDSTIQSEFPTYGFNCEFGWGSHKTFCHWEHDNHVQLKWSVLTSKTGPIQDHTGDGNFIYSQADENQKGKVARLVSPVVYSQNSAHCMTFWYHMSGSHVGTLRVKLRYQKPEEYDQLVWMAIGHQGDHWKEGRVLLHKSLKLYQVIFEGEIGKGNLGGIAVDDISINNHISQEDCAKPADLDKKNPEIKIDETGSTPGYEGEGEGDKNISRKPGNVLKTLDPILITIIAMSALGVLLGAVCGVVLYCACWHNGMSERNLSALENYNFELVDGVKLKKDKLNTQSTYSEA

Question: Which IC50 does the source give for COc1ccc(/C=N/NC(=O)c2nn(-c3ccc(Cl)cc3)c(=O)c3c(N)scc23)cc1 here?
Answer: > 95 µM (inactive)

Question: For O=C(O)c1cccc(N2C(=O)c3cc([N+](=O)[O-])cc4cc([N+](=O)[O-])cc(c34)C2=O)c1, which IC50 is on record?
Answer: > 95 µM (inactive)

Question: How did the IC50 turn out when CCc1ccc(NC(=O)CCn2nc(C)c(S(=O)(=O)N3CCCCC3)c2C)cc1 was run?
Answer: > 95 µM (inactive)

Question: With O=C(Cc1ccccc1Cl)N1CCOCC1 as the molecule, how does the IC50 read?
Answer: > 95 µM (inactive)

Question: How did the IC50 turn out when O=C(NCc1ccccc1)c1cccc(S(=O)(=O)N2CCCCC2)c1 was run?
Answer: > 95 µM (inactive)

Question: COc1ccc([C@H]2/C=C\CN(S(C)(=O)=O)[C@@H](C)C(=O)N2Cc2ccc(F)cc2)cc1 was tested. Which IC50 did it give?
Answer: > 95 µM (inactive)

Question: COC(=O)[C@@]1(Cc2ccc(OC)cc2)[C@H]2c3cc(C(=O)N4CCCC4)n(CCN4CCOCC4)c3C[C@H]2CN1C(=O)c1ccccc1 was tested. Which IC50 did it give?
Answer: > 95 µM (inactive)

Question: How did the IC50 turn out when COC(=O)c1ccn(C(=O)c2ccc(Cl)cc2)n1 was run?
Answer: > 95 µM (inactive)

Question: How did the IC50 turn out when CCO[C@@H]1OC(C(=O)NCc2ccccc2)=C[C@H](c2ccc(Br)cc2)[C@H]1CCCO was run?
Answer: > 95 µM (inactive)

Question: With NC1=NC[C@@H](Cc2ccc(O)cc2)N1CCCCC1CCCCC1 as the molecule, how does the IC50 read?
Answer: > 95 µM (inactive)

Question: With O=C(NCCCN1CCOCC1)c1ccc2c(=O)n(-c3ccc(F)c(Cl)c3)c(=S)[nH]c2c1 as the molecule, how does the IC50 read?
Answer: > 95 µM (inactive)

Question: How did the IC50 turn out when OCCCc1n[nH]c(=S)n1-c1ccccc1 was run?
Answer: > 95 µM (inactive)

Question: How did the IC50 turn out when CC(C)NC(=O)c1c(CSc2ccccc2)noc1C(=O)NCc1ccccc1 was run?
Answer: > 95 µM (inactive)

Question: For CCOC(=O)C[C@H]1c2cc(C(F)(F)F)ccc2S(=O)(=O)N1Cc1ccccc1, which IC50 is on record?
Answer: > 95 µM (inactive)

Question: COCCNC(=S)N(CCc1c(C)[nH]c2ccc(F)cc12)Cc1cccs1 was tested. Which IC50 did it give?
Answer: > 95 µM (inactive)

Question: Which IC50 does the source give for CN(Cc1cnn(C)c1)C(=O)c1cc2ccccc2oc1=O here?
Answer: > 95 µM (inactive)

Question: With COc1ccc(NC(=O)C(C)Sc2ccccc2)cc1 (stereo not drawn) as the molecule, how does the IC50 read?
Answer: > 95 µM (inactive)

same assay, conditions: NRP-1 b1b2 / RPARPAR peptide binding, FP or AlphaScreen; FP, run 1; individual panel run IC50

Question: With CCOC(=O)[C@]12CCCC=C1N(CCC1=CCCCC1)C(=O)[C@H](CC(=O)NCC13CC4CC(CC(C4)C1)C3)C2 as the molecule, how does the pIC50 read?
Answer: < 4.02

Question: With CCNS(=O)(=O)c1ccc(CCC(=O)O)cc1 as the molecule, how does the pIC50 read?
Answer: < 4.02

Question: How did the pIC50 turn out when Cc1ccc(COn2c(-c3ccc(Cl)cc3Cl)nc3ncccc32)cc1 was run?
Answer: < 4.02

Question: O=C(CCc1ccc(Oc2cc([N+](=O)[O-])cc([N+](=O)[O-])c2)cc1)N1CCCCCC1 was tested. Which pIC50 did it give?
Answer: < 4.02

Question: How did the pIC50 turn out when CCOc1ccc(-n2c(Cc3cc(=O)[nH]c(=O)[nH]3)nnc2SC(C)C)cc1 was run?
Answer: < 4.02

Question: CN1C[C@H](CO)C=C2c3cccc4[nH]cc(c34)C[C@H]21 was tested. Which pIC50 did it give?
Answer: < 4.02

Question: How did the pIC50 turn out when Cc1ccnc(N2CCC(C(=O)Nc3ccc4c(c3)OCCO4)CC2)n1 was run?
Answer: < 4.02

Question: With CC(OC(=O)c1ccco1)C(=O)Nc1nc(-c2ccccc2)cs1 (stereo not drawn) as the molecule, how does the pIC50 read?
Answer: < 4.02

Question: With CCOC(=O)Cn1c(=O)n(Cc2ccco2)c(=O)c2ccc(C(=O)NC3CCCC3)cc21 as the molecule, how does the pIC50 read?
Answer: < 4.02

Question: How did the pIC50 turn out when O=C(c1ccc(-c2cccc(Cl)c2)o1)N1CCN(c2ccc([N+](=O)[O-])cc2)CC1 was run?
Answer: < 4.02

Question: With CCCCC1CCC(C(=O)NC2CCS(=O)(=O)C2)CC1 (stereo not drawn) as the molecule, how does the pIC50 read?
Answer: < 4.02

Question: With Cc1ccccc1S(=O)(=O)Nc1nc2ccccc2nc1NCCO as the molecule, how does the pIC50 read?
Answer: < 4.02

Question: C=CCOc1ccc(C2/C(=C(\O)c3c(C)[nH]c(C(=O)OC)c3C)C(=O)C(=O)N2CCN(C)C)cc1 (stereo not drawn) was tested. Which pIC50 did it give?
Answer: < 4.02

Question: With O=C(Nc1cccc(S(=O)(=O)N2CCCCC2)c1)c1ccc([N+](=O)[O-])o1 as the molecule, how does the pIC50 read?
Answer: < 4.02

Question: With COc1ccc(C(=O)N2CCC(C)(C(=O)NS(=O)(=O)C3CC3)C2)cc1F (stereo not drawn) as the molecule, how does the pIC50 read?
Answer: < 4.02

Question: How did the pIC50 turn out when CCn1c(N)c(C(=O)NCc2cccnc2)sc1=S was run?
Answer: < 4.02

Question: With COc1ccc(/C=N/NC(=O)c2nn(-c3ccc(Cl)cc3)c(=O)c3c(N)scc23)cc1 as the molecule, how does the pIC50 read?
Answer: < 4.02

Question: With O=C(O)c1cccc(N2C(=O)c3cc([N+](=O)[O-])cc4cc([N+](=O)[O-])cc(c34)C2=O)c1 as the molecule, how does the pIC50 read?
Answer: < 4.02

Question: How did the pIC50 turn out when CCc1ccc(NC(=O)CCn2nc(C)c(S(=O)(=O)N3CCCCC3)c2C)cc1 was run?
Answer: < 4.02

Question: O=C(Cc1ccccc1Cl)N1CCOCC1 was tested. Which pIC50 did it give?
Answer: < 4.02

Question: O=C(NCc1ccccc1)c1cccc(S(=O)(=O)N2CCCCC2)c1 was tested. Which pIC50 did it give?
Answer: < 4.02

Question: With COc1ccc([C@H]2/C=C\CN(S(C)(=O)=O)[C@@H](C)C(=O)N2Cc2ccc(F)cc2)cc1 as the molecule, how does the pIC50 read?
Answer: < 4.02

Question: COC(=O)[C@@]1(Cc2ccc(OC)cc2)[C@H]2c3cc(C(=O)N4CCCC4)n(CCN4CCOCC4)c3C[C@H]2CN1C(=O)c1ccccc1 was tested. Which pIC50 did it give?
Answer: < 4.02

Question: How did the pIC50 turn out when COC(=O)c1ccn(C(=O)c2ccc(Cl)cc2)n1 was run?
Answer: < 4.02

Question: CCO[C@@H]1OC(C(=O)NCc2ccccc2)=C[C@H](c2ccc(Br)cc2)[C@H]1CCCO was tested. Which pIC50 did it give?
Answer: < 4.02

Question: NC1=NC[C@@H](Cc2ccc(O)cc2)N1CCCCC1CCCCC1 was tested. Which pIC50 did it give?
Answer: < 4.02

Question: With O=C(NCCCN1CCOCC1)c1ccc2c(=O)n(-c3ccc(F)c(Cl)c3)c(=S)[nH]c2c1 as the molecule, how does the pIC50 read?
Answer: < 4.02

Question: With OCCCc1n[nH]c(=S)n1-c1ccccc1 as the molecule, how does the pIC50 read?
Answer: < 4.02

Question: CC(C)NC(=O)c1c(CSc2ccccc2)noc1C(=O)NCc1ccccc1 was tested. Which pIC50 did it give?
Answer: < 4.02

Question: How did the pIC50 turn out when CCOC(=O)C[C@H]1c2cc(C(F)(F)F)ccc2S(=O)(=O)N1Cc1ccccc1 was run?
Answer: < 4.02

Question: COCCNC(=S)N(CCc1c(C)[nH]c2ccc(F)cc12)Cc1cccs1 was tested. Which pIC50 did it give?
Answer: < 4.02

Question: How did the pIC50 turn out when CN(Cc1cnn(C)c1)C(=O)c1cc2ccccc2oc1=O was run?
Answer: < 4.02

Question: COc1ccc(NC(=O)C(C)Sc2ccccc2)cc1 (stereo not drawn) was tested. Which pIC50 did it give?
Answer: < 4.02

same assay, conditions: NRP-1 b1b2 / RPARPAR peptide binding, FP or AlphaScreen; FP, run 2; individual panel run IC50

Question: With CCOC(=O)[C@]12CCCC=C1N(CCC1=CCCCC1)C(=O)[C@H](CC(=O)NCC13CC4CC(CC(C4)C1)C3)C2 as the molecule, how does the pIC50 read?
Answer: < 4.02

Question: With CCNS(=O)(=O)c1ccc(CCC(=O)O)cc1 as the molecule, how does the pIC50 read?
Answer: < 4.02

Question: With Cc1ccc(COn2c(-c3ccc(Cl)cc3Cl)nc3ncccc32)cc1 as the molecule, how does the pIC50 read?
Answer: < 4.02

Question: With O=C(CCc1ccc(Oc2cc([N+](=O)[O-])cc([N+](=O)[O-])c2)cc1)N1CCCCCC1 as the molecule, how does the pIC50 read?
Answer: < 4.02

Question: With CCOc1ccc(-n2c(Cc3cc(=O)[nH]c(=O)[nH]3)nnc2SC(C)C)cc1 as the molecule, how does the pIC50 read?
Answer: < 4.02

Question: With CN1C[C@H](CO)C=C2c3cccc4[nH]cc(c34)C[C@H]21 as the molecule, how does the pIC50 read?
Answer: < 4.02

Question: With Cc1ccnc(N2CCC(C(=O)Nc3ccc4c(c3)OCCO4)CC2)n1 as the molecule, how does the pIC50 read?
Answer: < 4.02

Question: CC(OC(=O)c1ccco1)C(=O)Nc1nc(-c2ccccc2)cs1 (stereo not drawn) was tested. Which pIC50 did it give?
Answer: < 4.02

Question: CCOC(=O)Cn1c(=O)n(Cc2ccco2)c(=O)c2ccc(C(=O)NC3CCCC3)cc21 was tested. Which pIC50 did it give?
Answer: < 4.02

Question: With O=C(c1ccc(-c2cccc(Cl)c2)o1)N1CCN(c2ccc([N+](=O)[O-])cc2)CC1 as the molecule, how does the pIC50 read?
Answer: 4.40

Question: With CCCCC1CCC(C(=O)NC2CCS(=O)(=O)C2)CC1 (stereo not drawn) as the molecule, how does the pIC50 read?
Answer: < 4.02

Question: With Cc1ccccc1S(=O)(=O)Nc1nc2ccccc2nc1NCCO as the molecule, how does the pIC50 read?
Answer: < 4.02

Question: How did the pIC50 turn out when C=CCOc1ccc(C2/C(=C(\O)c3c(C)[nH]c(C(=O)OC)c3C)C(=O)C(=O)N2CCN(C)C)cc1 (stereo not drawn) was run?
Answer: < 4.02

Question: How did the pIC50 turn out when O=C(Nc1cccc(S(=O)(=O)N2CCCCC2)c1)c1ccc([N+](=O)[O-])o1 was run?
Answer: < 4.02

Question: With COc1ccc(C(=O)N2CCC(C)(C(=O)NS(=O)(=O)C3CC3)C2)cc1F (stereo not drawn) as the molecule, how does the pIC50 read?
Answer: < 4.02

Question: With CCn1c(N)c(C(=O)NCc2cccnc2)sc1=S as the molecule, how does the pIC50 read?
Answer: 4.52

Question: With COc1ccc(/C=N/NC(=O)c2nn(-c3ccc(Cl)cc3)c(=O)c3c(N)scc23)cc1 as the molecule, how does the pIC50 read?
Answer: < 4.02

Question: How did the pIC50 turn out when O=C(O)c1cccc(N2C(=O)c3cc([N+](=O)[O-])cc4cc([N+](=O)[O-])cc(c34)C2=O)c1 was run?
Answer: < 4.02

Question: CCc1ccc(NC(=O)CCn2nc(C)c(S(=O)(=O)N3CCCCC3)c2C)cc1 was tested. Which pIC50 did it give?
Answer: < 4.02

Question: O=C(Cc1ccccc1Cl)N1CCOCC1 was tested. Which pIC50 did it give?
Answer: < 4.02

Question: With O=C(NCc1ccccc1)c1cccc(S(=O)(=O)N2CCCCC2)c1 as the molecule, how does the pIC50 read?
Answer: < 4.02

Question: How did the pIC50 turn out when COc1ccc([C@H]2/C=C\CN(S(C)(=O)=O)[C@@H](C)C(=O)N2Cc2ccc(F)cc2)cc1 was run?
Answer: < 4.02

Question: COC(=O)[C@@]1(Cc2ccc(OC)cc2)[C@H]2c3cc(C(=O)N4CCCC4)n(CCN4CCOCC4)c3C[C@H]2CN1C(=O)c1ccccc1 was tested. Which pIC50 did it give?
Answer: < 4.02

Question: COC(=O)c1ccn(C(=O)c2ccc(Cl)cc2)n1 was tested. Which pIC50 did it give?
Answer: < 4.02

Question: How did the pIC50 turn out when CCO[C@@H]1OC(C(=O)NCc2ccccc2)=C[C@H](c2ccc(Br)cc2)[C@H]1CCCO was run?
Answer: < 4.02

Question: With NC1=NC[C@@H](Cc2ccc(O)cc2)N1CCCCC1CCCCC1 as the molecule, how does the pIC50 read?
Answer: < 4.02

Question: How did the pIC50 turn out when O=C(NCCCN1CCOCC1)c1ccc2c(=O)n(-c3ccc(F)c(Cl)c3)c(=S)[nH]c2c1 was run?
Answer: < 4.02

Question: With OCCCc1n[nH]c(=S)n1-c1ccccc1 as the molecule, how does the pIC50 read?
Answer: < 4.02

Question: How did the pIC50 turn out when CC(C)NC(=O)c1c(CSc2ccccc2)noc1C(=O)NCc1ccccc1 was run?
Answer: < 4.02

Question: CCOC(=O)C[C@H]1c2cc(C(F)(F)F)ccc2S(=O)(=O)N1Cc1ccccc1 was tested. Which pIC50 did it give?
Answer: < 4.02

Question: How did the pIC50 turn out when COCCNC(=S)N(CCc1c(C)[nH]c2ccc(F)cc12)Cc1cccs1 was run?
Answer: < 4.02

Question: How did the pIC50 turn out when CN(Cc1cnn(C)c1)C(=O)c1cc2ccccc2oc1=O was run?
Answer: < 4.02

Question: With COc1ccc(NC(=O)C(C)Sc2ccccc2)cc1 (stereo not drawn) as the molecule, how does the pIC50 read?
Answer: < 4.02
